The results in this text go back to patent US20250049812A1, “Compounds that Inhibit Necroptosis and Their Preparation Methods” (SHANGHAI INSTITUTE OF ORGANIC CHEMISTRY, CHINESE ACADEMY OF …, priority 2021, published 2025).

The subject of the first assay is Jurkat FADD (−/−) Cells. Nature of the assay: TNF-α induced necroptosis of Jurkat FADD-deficient cells (CellTiter-Glo cell survival). The assay is classed as cell-based, human. To be noted: Homo sapiens, Jurkat, 13 h. A digest of the protocol: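 Cells in RPMI 1640 with 10% FBS were pretreated for 1 h at 37 °C with compound (12-point threefold series from 25 μM, or 0.5 μM, in triplicate). They were then stimulated with TNFα added as a 5 ng/mL solution for 13 h. Survival was read by luminescence.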
As to `COC(=O)c1cn2c3c(cccc13)N(C)C(=O)[C@@H](NC(=O)c1nnc(Cc3ccccc3)[nH]1)C2` [T-95, Methyl (S)-3-(5-benzyl-4H-1,2,4-triazole-3-carboxamide)-1-methyl-2-oxo-1,2,3,4-tetrahydro-[1,4] diazepine [3,2,1-hi] indole-7-carboxylate], the IC50 lay in the range of 100 to 1000 nM.

Still in this assay, the particulars now being: Homo sapiens; TNF-α induced necroptosis, Jurkat FADD-deficient cells, 13 hours, CellTiter-Glo; read-out: IC50.
With `CN1C(=O)C(NC(=O)c2nnc(Cc3ccccc3)[nH]2)Cc2cn(-c3ncccc3C(=O)OC3CC3)c3cccc1c23` (racemic) [T-66, (±)-2-(3-(5-benzyl-4H-1,2,4-triazole-3-carboxamide)-1-methyl-2-oxo-1,2,3,4-tetrahydro-6H-azacyclo [4,3,2-cd]indol-6-yl)nicotinic Acid Cyclopropane], the IC50 was less than 10 nM. For the molecule `COc1ncccc1-c1cn2c3c(cccc13)N(C)C(=O)C(NC(=O)c1nnc(Cc3ccccc3)[nH]1)C2` (stereo not shown) [T-78, 5-benzyl-N-(7-(2-methoxypyridin-3-yl)-1-methyl-2-oxo-1,2,3,4-tetrahydro-[1,4]diazepino[3,2,1-hi]indol-3-yl)-4H-1,2,4-triazole-3-carboxamide], the IC50 is less than 10 nM. For the molecule `Cc1nn(C)cc1-c1cn2c3c(cccc13)N(C)C(=O)[C@@H](NC(=O)c1nnc(Cc3ccccc3)[nH]1)C2` [T-117, (S)-5-benzyl-N-(7-(1,3-dimethyl-1H-pyrazol-4-yl)-1-methyl-2-oxo-1,2,3,4-tetrahydro-1,4-diazepine [3,2,1-hi]indol-3-yl)-4H-1,2,4-triazole-3-carboxamide], the IC50 was less than 10 nM. Same read-out and setting: as for `CN1C(=O)C(NC(=O)c2nnc(Cc3ccccc3)[nH]2)Cc2cn(-c3ncccc3C3CC3)c3cccc1c23` (racemic) [T-52, (±)-5-benzyl-N-(6-(3-cyclopropylpyridin-2-yl)-1-methyl-2-oxo-2,3,4,6-tetrahydro-1H-azacyclo [4,3,2-cd]indol-3-yl)-4H-1,2,4-triazole-3-carboxamide], the figure is less than 10 nM; as for `CN1C(=O)C(NC(=O)c2nnc(Cc3ccccc3)[nH]2)Cn2cc(C#Cc3cnn(C)c3)c3cccc1c32` (racemic) [T-8, (±)-5-benzyl-N-(1-methyl-7-((1-methyl-1H-pyrazol-4-yl)ethynyl)-2-oxy-1,2,3,4-tetrahydro-[1,4]diazepino [3,2,1-hi]indol-3-yl)-4H-1,2,4-triazole-3-carboxamide], less than 10 nM; as for `CN1C(=O)[C@@H](NC(=O)c2nnc(Cc3ccccc3)[nH]2)Cn2cc(-c3cnn(C4CC4)c3)c3cccc1c32` [T-121, (S)-5-benzyl-N-(7-(1-cyclopropyl-1H-pyrazol-4-yl)-1-methyl-2-oxo-1,2,3,4-tetrahydro-1,4-diazepino [3,2,1-hi]indol-3-yl)-4H-1,2,4-triazole-3-carboxamide], 10 to 100 nM. As to `CN1C(=O)C(NC(=O)c2nnc(Cc3ccccc3)[nH]2)Cc2cn(-c3ncccc3Cl)c3cccc1c23` (racemic) [T-62, (±)-5-benzyl-N-(6-(3-chloropyridin-2-yl)-1-methyl-2-oxo-2,3,4,6-tetrahydro-1H-azacyclo [4,3,2-cd]indol-3-yl)-4H-1,2,4-triazole-3-carboxamide], the IC50 is less than 10 nM. `COCCn1cc2c3c(cccc31)N(C)C(=O)C(NC(=O)c1nnc(Cc3ccccc3)[nH]1)C2` (racemic) [T-28, (±)-5-benzyl-N-(6-(2-methoxyethyl)-1-methyl-2-oxo-2,3,4,6-tetrahydro-1H-azacyclo [4,3,2-cd]indol-3-yl)-4H-1,2,4-triazole-3-carboxamide]: the IC50 is less than 10 nM. With `CN1C(=O)[C@@H](NC(=O)c2nnc(Cc3ccccc3)[nH]2)Cn2cc(-c3cnn(C4CCOCC4)c3)c3cccc1c32` [T-120, (S)-5-benzyl-N-(1-methyl-2-oxo-7-(1-(tetrahydro-2H-pyran-4-yl)-1H-pyrazol-4-yl)-1,2,3,4-tetrahydro-1,4-diazepine[3,2,1-hi]indol-3-yl)-4H-1,2,4-triazole-3-carboxamide], the IC50 is less than 10 nM. Regarding `Cc1cnn(C)c1-c1cn2c3c(cccc13)N(C)C(=O)C(NC(=O)c1nnc(Cc3ccccc3)[nH]1)C2` (stereo not shown) [T-81, 5-benzyl-N-(7-(1,4-dimethyl-1H-pyrazol-5-yl)-1-methyl-2-oxo-1,2,3,4-tetrahydro-[1,4]diazepino[3,2,1-hi]indol-3-yl)-4H-1,2,4-triazole-3-carboxamide], the IC50 is less than 10 nM. As for `CCN1C(=O)C(NC(=O)c2nnc(Cc3ccccc3)[nH]2)Cn2ccc3cccc1c32` (racemic) [T-10, (±)-5-benzyl-N-(1-ethyl-2-oxy-1,2,3,4-tetrahydro-[1,4]diazepino [3,2,1-hi]indol-3-yl)-4H-1,2,4-triazole-3-carboxamide], the IC50 lay in the range of 10 to 100 nM. As for `Cc1c(-c2cn3c4c(cccc24)N(C)C(=O)[C@@H](NC(=O)c2nnc(Cc4ccccc4)[nH]2)C3)cnn1C` [T-125, (S)-5-benzyl-N-(7-(1,5-dimethyl-1H-pyrazol-4-yl)-1-methyl-2-oxo-1,2,3,4-tetrahydro-1,4-diazepine [3,2,1-hi]indol-3-yl)-4H-1,2,4-triazole-3-carboxamide], the IC50 is less than 10 nM. In the case of `CN1C(=O)C(NC(=O)c2cc(Oc3ccccc3)ccn2)Cc2cn(-c3ncccc3C(F)(F)F)c3cccc1c23` (racemic) [T-70, (±)-N-(1-methyl-2-oxo-6-(3-(trifluoromethyl)pyridin-2-yl)-2,3,4,6-tetrahydro-1H-azacyclo[4,3,2-cd]indol-3-yl)-4-phenoxy Pyridinamide], the IC50 was less than 10 nM. As for `CN1C(=O)C(NC(=O)c2nnc(Cc3ccccc3)[nH]2)Cn2cc(-c3cnoc3)c3cccc1c32` (racemic) [T-88, (±)-5-benzyl-N-(7-(isoxazol-4-yl)-1-methyl-2-oxo-1,2,3,4-tetrahydro-[1,4]diazepine [3,2,1-hi]indol-3-yl)-4H-1,2,4-triazole-3-carboxamide], the IC50 lay in the range of 10 to 100 nM. The same measure, in the same setting: with `CN1C(=O)C(NC(=O)c2nnc(Cc3ccccc3)[nH]2)Cc2cn(CC#N)c3cccc1c23` (racemic) [T-25, (±)-5-benzyl-N-(6-(cyanomethyl)-1-methyl-2-oxo-2,3,4,6-tetrahydro-1H-azacyclo [4,3,2-cd]indol-3-yl)-4H-1,2,4-triazole-3-carboxamide] the figure was less than 10 nM. Same read-out and setting: as for `CN1C(=O)C(NC(=O)c2nnc(Cc3ccccc3)[nH]2)Cn2c(C(=O)O)cc3cccc1c32` (racemic) [T-13, (±)-3-(5-benzyl-4H-1,2,4-triazole-3-carboxamido)-1-methyl-2-oxy-1,2,3,4-tetrahydro-[1,4] diazepino [3,2,1-hi] indole-6-carboxylic Acid], the figure is greater than 1000 nM; as for `CN1C(=O)C(NC(=O)c2nnc(Cc3ccccc3)[nH]2)Cc2c[nH]c3cc(C#Cc4cnn(C)c4)cc1c23` (racemic) [T-45, (±)-5-benzyl-N-(1-methyl-8-((1-methyl-1H-pyrazol-4-yl)ethynyl)-2-oxo-2,3,4,6-tetrahydro-1H-aza [4,3,2-cd]indol-3-yl)-4H-1,2,4-triazole-3-carboxamide], less than 10 nM.

The assay is the same for the next values; noted with them: TNF-α induced necroptosis, Jurkat FADD-deficient cells, 13 hours, CellTiter-Glo; read-out: IC50.
For `Cc1nn(C)c(C)c1-c1cn2c3c(cccc13)N(C)C(=O)C(NC(=O)c1nnc(Cc3ccccc3)[nH]1)C2` (racemic) [T-119, (±)-5-benzyl-N-(1-methyl-2-oxo-7-(1,3,5-trimethyl-1H-pyrazol-4-yl)-1,2,3,4-tetrahydro-[1,4]diazepine [3,2,1-hi]indol-3-yl)-4H-1,2,4-triazole-3-carboxamide], the IC50 is less than 10 nM.

Broadly, the IC50 is the concentration needed to halve the response being measured.
